ChEMBL document CHEMBL1201862, “PubChem BioAssay data set” (2004)
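The compound was tested at five concentrations on cells cultured in 96-well plates, with a 48-hour exposure period. GI50 = concentration required for 50% inhibition of growth.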 The source made the active and inactive calls. Cut-off read from the data, not from the text of the source: active = GI50 up to about 1.1 µM and inactive = higher.

How the values were obtained:
Experiment in all cases: inhibition of tumour cell growth, NCI panel, 48 h
OVCAR-3 = system: OVCAR-3
MOLT-4 = system: MOLT-4
BT-549 = system: BT-549
UACC-257 = system: UACC-257
A549 = system: A549
Malme-3M = system: Malme-3M
MDA-MB-435 = system: MDA-MB-435
EKVX = system: EKVX
SK-OV-3 = system: SK-OV-3
A498 = system: A498
TK-10 = system: TK-10
LOX IMVI = system: LOX IMVI
RXF 393 = system: RXF 393
SK-MEL-28 = system: SK-MEL-28
HOP-92 = system: HOP-92
NCI-H23 = system: NCI-H23
OVCAR-5 = system: OVCAR-5
SW-620 = system: SW-620
NCI-H522 = system: NCI-H522
PC-3 = system: PC-3

Cc1ccc2c(c1)CC1(C2=O)[C@H](c2ccccc2)C2C(=O)c3ccc(C)cc3C2[C@H]1c1ccccc1 (some centres undefined)
GI50 (OVCAR-3): > 100 µM (inactive)
GI50 (MOLT-4): 43.8 µM (inactive)
GI50 (BT-549): > 100 µM (inactive)
GI50 (UACC-257): > 100 µM (inactive)
GI50 (A549): > 100 µM (inactive)
GI50 (Malme-3M): > 100 µM (inactive)
GI50 (MDA-MB-435): > 100 µM (inactive)
GI50 (EKVX): > 100 µM (inactive)
GI50 (SK-OV-3): > 100 µM (inactive)
GI50 (A498): > 100 µM (inactive)
GI50 (TK-10): > 100 µM (inactive)
GI50 (LOX IMVI): > 100 µM (inactive)
GI50 (RXF 393): > 100 µM (inactive)
GI50 (SK-MEL-28): > 100 µM (inactive)
GI50 (HOP-92): > 100 µM (inactive)
GI50 (NCI-H23): > 100 µM (inactive)
GI50 (OVCAR-5): > 100 µM (inactive)
GI50 (SW-620): > 100 µM (inactive)
GI50 (NCI-H522): > 100 µM (inactive)
GI50 (PC-3): 37.8 µM (inactive)

COC(=O)/C=C(\S/C=C(/c1ccccc1)N1CCn2c(C(=O)c3ccccc3)c(C(=O)OC)c(C(=O)OC)c21)C(=O)OC
GI50 (OVCAR-3): 1.51 µM (inactive)
GI50 (MOLT-4): 1.79 µM (inactive)
GI50 (BT-549): 3.83 µM (inactive)
GI50 (UACC-257): 3.07 µM (inactive)
GI50 (A549): > 10 µM (inactive)
GI50 (Malme-3M): 2.2 µM (inactive)
GI50 (MDA-MB-435): 3.97 µM (inactive)
GI50 (EKVX): > 10 µM (inactive)
GI50 (SK-OV-3): > 10 µM (inactive)
GI50 (A498): > 10 µM (inactive)
GI50 (TK-10): 2.63 µM (inactive)
GI50 (LOX IMVI): 1.47 µM (inactive)
GI50 (RXF 393): 2.67 µM (inactive)
GI50 (HOP-92): 1.23 µM (inactive)
GI50 (NCI-H23): 3.3 µM (inactive)
GI50 (OVCAR-5): 9.95 µM (inactive)
GI50 (SW-620): 0.565 µM (active)
GI50 (NCI-H522): 0.434 µM (active)
GI50 (PC-3): 6.25 µM (inactive)

CCCCc1ccc(Nc2nc3c(ncn3C3OC(COC(C)=O)C(OC(C)=O)C3OC(C)=O)c(=O)[nH]2)cc1 (centres undefined)
GI50 (OVCAR-3): 15.3 µM (inactive)
GI50 (MOLT-4): 18.7 µM (inactive)
GI50 (BT-549): 17.8 µM (inactive)
GI50 (UACC-257): 18.9 µM (inactive)
GI50 (A549): 92.7 µM (inactive)
GI50 (Malme-3M): 19.4 µM (inactive)
GI50 (MDA-MB-435): 19.9 µM (inactive)
GI50 (EKVX): 36.7 µM (inactive)
GI50 (SK-OV-3): 27 µM (inactive)
GI50 (A498): > 100 µM (inactive)
GI50 (TK-10): 45.3 µM (inactive)
GI50 (LOX IMVI): 18.5 µM (inactive)
GI50 (RXF 393): 19.1 µM (inactive)
GI50 (HOP-92): 16.1 µM (inactive)
GI50 (NCI-H23): 17.4 µM (inactive)
GI50 (OVCAR-5): 79.6 µM (inactive)
GI50 (SW-620): 25.1 µM (inactive)
GI50 (NCI-H522): 18 µM (inactive)
GI50 (PC-3): 19.7 µM (inactive)

CCCCn1c(O)nc2c(N)ncnc21
GI50 (OVCAR-3): > 100 µM (inactive)
GI50 (BT-549): > 100 µM (inactive)
GI50 (UACC-257): > 100 µM (inactive)
GI50 (A549): > 100 µM (inactive)
GI50 (Malme-3M): > 100 µM (inactive)
GI50 (MDA-MB-435): > 100 µM (inactive)
GI50 (EKVX): 92.9 µM (inactive)
GI50 (SK-OV-3): > 100 µM (inactive)
GI50 (A498): > 100 µM (inactive)
GI50 (TK-10): > 100 µM (inactive)
GI50 (LOX IMVI): > 100 µM (inactive)
GI50 (RXF 393): > 100 µM (inactive)
GI50 (SK-MEL-28): > 100 µM (inactive)
GI50 (HOP-92): > 100 µM (inactive)
GI50 (NCI-H23): > 100 µM (inactive)
GI50 (OVCAR-5): > 100 µM (inactive)
GI50 (SW-620): > 100 µM (inactive)
GI50 (NCI-H522): > 100 µM (inactive)
GI50 (PC-3): > 100 µM (inactive)

CC1=C(C(=O)c2ccccc2)C23C(=O)N(c4ccccc4)C(=O)C2=C(O)C=CC3(O)N1 (centres undefined)
GI50 (OVCAR-3): 21.4 µM (inactive)
GI50 (BT-549): 20.4 µM (inactive)
GI50 (UACC-257): 44.5 µM (inactive)
GI50 (A549): 50.2 µM (inactive)
GI50 (Malme-3M): 25.2 µM (inactive)
GI50 (MDA-MB-435): 40 µM (inactive)
GI50 (EKVX): 76.6 µM (inactive)
GI50 (A498): 40 µM (inactive)
GI50 (TK-10): 67.1 µM (inactive)
GI50 (LOX IMVI): 19.8 µM (inactive)
GI50 (RXF 393): 20.2 µM (inactive)
GI50 (SK-MEL-28): 17.3 µM (inactive)
GI50 (HOP-92): 17.5 µM (inactive)
GI50 (NCI-H23): 44.2 µM (inactive)
GI50 (OVCAR-5): 47.2 µM (inactive)
GI50 (SW-620): 25.9 µM (inactive)
GI50 (NCI-H522): 12.7 µM (inactive)
GI50 (PC-3): 28.4 µM (inactive)

N=c1nc(N)nc(N)n1-c1ccc(S(N)(=O)=O)cc1
GI50 (OVCAR-3): > 100 µM (inactive)
GI50 (MOLT-4): > 100 µM (inactive)
GI50 (BT-549): > 100 µM (inactive)
GI50 (UACC-257): > 100 µM (inactive)
GI50 (A549): > 100 µM (inactive)
GI50 (Malme-3M): > 100 µM (inactive)
GI50 (MDA-MB-435): > 100 µM (inactive)
GI50 (EKVX): > 100 µM (inactive)
GI50 (A498): > 100 µM (inactive)
GI50 (TK-10): > 100 µM (inactive)
GI50 (LOX IMVI): > 100 µM (inactive)
GI50 (RXF 393): > 100 µM (inactive)
GI50 (SK-MEL-28): > 100 µM (inactive)
GI50 (HOP-92): > 100 µM (inactive)
GI50 (NCI-H23): > 100 µM (inactive)
GI50 (OVCAR-5): > 100 µM (inactive)
GI50 (SW-620): > 100 µM (inactive)
GI50 (NCI-H522): > 100 µM (inactive)
GI50 (PC-3): > 100 µM (inactive)
